From PubChem BioAssay AID1845197 (Molecular Pharmacology Branch, DTP, NCI, 2023)

Test system: 349418-098-R tumor spheroid viability
Assay: Anticancer human tumor 349418-098-R patient-derived lung adenocarcinoma cell line growth inhibition
Conditions: spheroids with HUVEC and MSC; for IC50: curve of first compound; for viability, T/C: stronger effect = lower value
Outline: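 Complex tumor spheroids combined malignant cells with endothelial cells and mesenchymal stem cells. DNA-damaging drugs and DNA repair inhibitors were tested alone and in combination, at half-log dilutions down from clinical Cmax (top 10 microM if Cmax unknown), 0.25% DMSO final.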

[1] = second compound 0.003 µM, first compound 0.0316 µM
[2] = second compound 0.003 µM, first compound 0.1 µM
[3] = second compound 0.003 µM, first compound 0.316 µM
[4] = second compound 0.003 µM, first compound 1 µM
[5] = second compound 0.003 µM, first compound 3.16 µM
[6] = second compound 0.003 µM, first compound 10 µM
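Note: spheroids exposed to compound for 7 days before measurement.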
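Throughout, for viability, T/C: percent of vehicle control viability with 100% = DMSO-treated spheroids.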

SMILES: COc1ccc([C@@H](O)c2cc(-c3ncnc4cc(N5CCOCC5)ccc34)c(F)cc2Cl)nn1 + COc1cc2c(cc1O)CCNC21CSC2c3c(OC(C)=O)c(C)c4c(c3C(COC1=O)N1C(O)C3Cc5cc(C)c(OC)c(O)c5C(C21)N3C)OCO4
- IC50 (second compound 30 pM): 5.96 µM
- IC50 (second compound 94.9 pM): 3.85 µM
- IC50 (second compound 0.0003 µM): 0.399 µM
- IC50 (second compound 0.000949 µM): < 0.0316 µM
- IC50 (second compound 0.003 µM): < 0.0316 µM
- viability, T/C (second compound 30 pM, first compound 0.0316 µM): 97.2%
- viability, T/C (second compound 30 pM, first compound 0.1 µM): 92.9%
- viability, T/C (second compound 30 pM, first compound 0.316 µM): 102%
- viability, T/C (second compound 30 pM, first compound 1 µM): 98.6%
- viability, T/C (second compound 30 pM, first compound 3.16 µM): 83.3%
- viability, T/C (second compound 30 pM, first compound 10 µM): 22.5%
- viability, T/C (second compound 94.9 pM, first compound 0.0316 µM): 105%
- viability, T/C (second compound 94.9 pM, first compound 0.1 µM): 101%
- viability, T/C (second compound 94.9 pM, first compound 0.316 µM): 94.2%
- viability, T/C (second compound 94.9 pM, first compound 1 µM): 94.3%
- viability, T/C (second compound 94.9 pM, first compound 3.16 µM): 56.3%
- viability, T/C (second compound 94.9 pM, first compound 10 µM): 18.3%
- viability, T/C (second compound 0.0003 µM, first compound 0.0316 µM): 84.1%
- viability, T/C (second compound 0.0003 µM, first compound 0.1 µM): 90.8%
- viability, T/C (second compound 0.0003 µM, first compound 0.316 µM): 60%
- viability, T/C (second compound 0.0003 µM, first compound 1 µM): 9.13%
- viability, T/C (second compound 0.0003 µM, first compound 3.16 µM): 2.15%
- viability, T/C (second compound 0.0003 µM, first compound 10 µM): 0.54%
- viability, T/C (second compound 0.000949 µM, first compound 0.0316 µM): 0.44%
- viability, T/C (second compound 0.000949 µM, first compound 0.1 µM): 0.79%
- viability, T/C (second compound 0.000949 µM, first compound 0.316 µM): 0.24%
- viability, T/C (second compound 0.000949 µM, first compound 1 µM): 0.35%
- viability, T/C (second compound 0.000949 µM, first compound 3.16 µM): 1.2%
- viability, T/C (second compound 0.000949 µM, first compound 10 µM): 2.19%
- viability, T/C [1]: 1.61%
- viability, T/C [2]: 2.06%
- viability, T/C [3]: 2.65%
- viability, T/C [4]: 3.97%
- viability, T/C [5]: 4.18%
- viability, T/C [6]: 4.47%

SMILES: [2H]c1nc(C)nc([2H])c1-c1cc(NC[C@@H](C)c2cccc3c(C(=O)NC)ccnc23)ncn1 + CC[C@@]1(O)C(=O)OCc2c1cc1n(c2=O)Cc2cc3c(CN(C)C)c(O)ccc3nc2-1
- IC50 (second compound 0.003 µM): > 10 µM
- IC50 (second compound 0.00949 µM): > 10 µM
- IC50 (second compound 0.03 µM): 7.51 µM
- IC50 (second compound 0.0949 µM): < 0.0316 µM
- IC50 (second compound 0.3 µM): < 0.0316 µM
- viability, T/C [1]: 96.3%
- viability, T/C [2]: 103%
- viability, T/C [3]: 97.9%
- viability, T/C [4]: 105%
- viability, T/C [5]: 102%
- viability, T/C [6]: 102%
- viability, T/C (second compound 0.00949 µM, first compound 0.0316 µM): 93.7%
- viability, T/C (second compound 0.00949 µM, first compound 0.1 µM): 101%
- viability, T/C (second compound 0.00949 µM, first compound 0.316 µM): 98.5%
- viability, T/C (second compound 0.00949 µM, first compound 1 µM): 100%
- viability, T/C (second compound 0.00949 µM, first compound 3.16 µM): 102%
- viability, T/C (second compound 0.00949 µM, first compound 10 µM): 97.2%
- viability, T/C (second compound 0.03 µM, first compound 0.0316 µM): 78.9%
- viability, T/C (second compound 0.03 µM, first compound 0.1 µM): 67.9%
- viability, T/C (second compound 0.03 µM, first compound 0.316 µM): 75.5%
- viability, T/C (second compound 0.03 µM, first compound 1 µM): 71.1%
- viability, T/C (second compound 0.03 µM, first compound 3.16 µM): 53.9%
- viability, T/C (second compound 0.03 µM, first compound 10 µM): 48.7%
- viability, T/C (second compound 0.0949 µM, first compound 0.0316 µM): 13.9%
- viability, T/C (second compound 0.0949 µM, first compound 0.1 µM): 15.4%
- viability, T/C (second compound 0.0949 µM, first compound 0.316 µM): 11.2%
- viability, T/C (second compound 0.0949 µM, first compound 1 µM): 13.1%
- viability, T/C (second compound 0.0949 µM, first compound 3.16 µM): 7.36%
- viability, T/C (second compound 0.0949 µM, first compound 10 µM): 6.4%
- viability, T/C (second compound 0.3 µM, first compound 0.0316 µM): 4.73%
- viability, T/C (second compound 0.3 µM, first compound 0.1 µM): 5.56%
- viability, T/C (second compound 0.3 µM, first compound 0.316 µM): 4.91%
- viability, T/C (second compound 0.3 µM, first compound 1 µM): 4.06%
- viability, T/C (second compound 0.3 µM, first compound 3.16 µM): 4.8%
- viability, T/C (second compound 0.3 µM, first compound 10 µM): 3.56%
